Measurements published in ChEMBL document CHEMBL6121038, “Design and Synthesis of Hederagenin Derivatives for the Treatment of Sepsis by Targeting TAK1 and Regulating the TAK1-NF-κB/MAPK Signaling” (J Med Chem, 2025).
The source made the active and inactive calls. The rule behind the calls is not given here.

What was measured:
[1] = Toxicity in BALB/c mouse assessed as pathological damage in heart at 10 mg/kg, po administered for 2 hrs by H and E staining based analysis; type: organism-based; conditions: in vivo
[2] = Toxicity in BALB/c mouse assessed as kidney lesions at 2.5 to 10 mg/kg, iv administered for 2 hrs and measured after 12 hrs by H and E staining based assay; type: organism-based; conditions: in vivo, 14 h, dose 2.5-10 mg/kg
[3] = Cmax in BALB/c mouse at 10 mg/kg, po measured upto 24 hrs by LC/MS-MS analysis; type: ADME, organism-based; conditions: in vivo
Mus musculus [4] = assay: Antiinflammatory activity in LPS-induced BALB/c sepsis mouse model assessed as decrease in serum SCr level at 2.5 to 10 mg/kg, iv administered for 2 hrs and measured after 12 hrs; type: functional, organism-based; conditions: dose 2.5-10 mg/kg, time 14.0 hrs
RAW264.7 [5] = assay: Antiinflammatory activity in LPS-induced mouse RAW264.7 cells assessed as reduction in TAK1-TAB1 complex formation incubated for 2 hrs vy immunoprecipitation analysis; type: functional, cell-based
RAW264.7 [6] = assay: Antiinflammatory activity in LPS-induced mouse RAW264.7 cells assessed as reduction in TNF-alpha release incubated for 24 hrs by ELISA method; type: functional, cell-based; conditions: dose 2.5-10 µM
[7] = Toxicity in BALB/c mouse assessed as change in MDA level in serum at 10 mg/kg, po; type: organism-based; conditions: in vivo
RAW264.7 [8] = assay: Antiinflammatory activity in LPS-induced mouse RAW264.7 cells assessed as reduction in IL-6 release incubated for 24 hrs by ELISA method; type: functional, cell-based; conditions: dose 2.5-10 µM
[9] = AUC (0 to infinity) in BALB/c mouse at 10 mg/kg, po measured upto 24 hrs by LC/MS-MS analysis; type: ADME, organism-based; conditions: in vivo
[10] = Toxicity in BALB/c mouse assessed as pathological damage in spleen at 10 mg/kg, po administered for 2 hrs by H and E staining based analysis; type: organism-based; conditions: in vivo
[11] = (§1) Toxicity in BALB/c mouse assessed as histopathological lesions in lung at 10 mg/kg, po in presence of 4a-benzyl-12-ethyl-(6aS,6bR,9R,13aR)-9-(hydroxymethyl)-2,2,6a,6b,9,13a-hexamethyl-1,3,4,5,6,6a,6b,7,8,8a,9,13,13a,13b,14,15b-hexadecahydropiceno[2,3-d]isoxazole-4a,12(2H)-dicarboxylate by H and E staining based analysis; type: organism-based; conditions: in vivo
Mus musculus [12] = assay: Antiinflammatory activity in LPS-induced BALB/c sepsis mouse model assessed as decrease in serum ALT level at 2.5 to 10 mg/kg, iv administered for 2 hrs and measured after 12 hrs; type: functional, organism-based; conditions: dose 2.5-10 mg/kg, time 14.0 hrs
RAW264.7 [13] = assay: Antiinflammatory activity in LPS-induced mouse RAW264.7 cells assessed as inhibition of IL-6 level at 20 uM incubated for 24 hrs by ELISA method relative to control; type: functional
[14] = Toxicity in BALB/c mouse assessed as lung lesions at 2.5 to 10 mg/kg, iv administered for 2 hrs and measured after 12 hrs by H and E staining based assay; type: organism-based; conditions: in vivo, 14 h, dose 2.5-10 mg/kg
[15] = Toxicity in BALB/c mouse assessed as animal survival at 500 mg/kg, po administered for 2 hrs; type: organism-based; conditions: in vivo
[16] = Toxicity in BALB/c mouse assessed as increase in survival rate at 10 mg/kg, po administered for 3 days; type: organism-based; conditions: in vivo, 72 h, time 3 day
[17] = Toxicity in BALB/c mouse assessed as animal survival at 750 mg/kg, po administered for 2 hrs; type: organism-based; conditions: in vivo
[18] = Toxicity in BALB/c mouse assessed as change in body weight at 10 mg/kg, po administered for 3 days; type: organism-based; conditions: in vivo, 72 h, time 3 day
Mus musculus [19] = assay: Antiinflammatory activity in LPS-induced BALB/c sepsis mouse model assessed as reduction in TNF-alpha level in serum at 2.5 to 10 mg/kg, iv administered for 2 hrs and measured after 12 hrs by ELISA analysis; type: functional, organism-based; conditions: dose 2.5-10 mg/kg, time 14.0 hrs
RAW264.7 [20] = assay: Cytotoxicity against mouse RAW264.7 cells assessed as cell viability at 40 uM measured after 24 hrs by MTT assay; type: toxicity, cell-based; conditions: raw264.7, 24 h
[21] = Half life in BALB/c mouse at 10 mg/kg, po measured upto 24 hrs by LC/MS-MS analysis; type: ADME, organism-based; conditions: in vivo
Mus musculus [22] = assay: Antiinflammatory activity in LPS-induced BALB/c sepsis mouse model assessed as decrease in serum AST level at 2.5 to 10 mg/kg, iv administered for 2 hrs and measured after 12 hrs; type: functional, organism-based; conditions: dose 2.5-10 mg/kg, time 14.0 hrs
Mus musculus [23] = assay: Antiinflammatory activity in LPS-induced BALB/c sepsis mouse model assessed as reduction in IL-6 level in serum at 2.5 to 10 mg/kg, iv administered for 2 hrs and measured after 12 hrs by ELISA analysis; type: functional, organism-based; conditions: dose 2.5-10 mg/kg, time 14.0 hrs
[24] = Toxicity in BALB/c mouse assessed as pathological damage in lung at 10 mg/kg, po administered for 2 hrs by H and E staining based analysis; type: organism-based; conditions: in vivo
[25] = Toxicity in BALB/c mouse assessed as liver lesions at 2.5 to 10 mg/kg, iv administered for 2 hrs and measured after 12 hrs by H and E staining based assay; type: organism-based; conditions: in vivo, 14 h, dose 2.5-10 mg/kg
Mus musculus [26] = assay: Antiinflammatory activity in LPS-induced BALB/c sepsis mouse model assessed as decrease in serum SOD level at 2.5 to 10 mg/kg, iv administered for 2 hrs and measured after 12 hrs; type: functional, organism-based; conditions: dose 2.5-10 mg/kg, time 14.0 hrs
[27] = Toxicity in BALB/c mouse assessed as pathological damage in liver at 10 mg/kg, po administered for 2 hrs by H and E staining based analysis; type: organism-based; conditions: in vivo
RAW264.7 [28] = assay: Antiinflammatory activity in LPS-induced mouse RAW264.7 cells assessed as inhibition of TNF-alpha level at 20 uM incubated for 24 hrs by ELISA method relative to control; type: functional
[29] = as §1, with “kidney” for “lung”; type: organism-based; conditions: in vivo
[30] = AUC (0 to t) in BALB/c mouse at 10 mg/kg, po measured upto 24 hrs by LC/MS-MS analysis; type: ADME, organism-based; conditions: in vivo
[31] = Toxicity in BALB/c mouse assessed as pathological damage in kidney at 10 mg/kg, po administered for 2 hrs by H and E staining based analysis; type: organism-based; conditions: in vivo
Mus musculus [32] = assay: Antiinflammatory activity in LPS-induced BALB/c sepsis mouse model assessed as decrease in serum BUN level at 2.5 to 10 mg/kg, iv administered for 2 hrs and measured after 12 hrs; type: functional, organism-based; conditions: dose 2.5-10 mg/kg, time 14.0 hrs
Mus musculus [33] = assay: Antiinflammatory activity in LPS-induced BALB/c sepsis mouse model assessed as decrease in serum MDA level at 2.5 to 10 mg/kg, iv administered for 2 hrs and measured after 12 hrs; type: functional, organism-based; conditions: dose 2.5-10 mg/kg, time 14.0 hrs
[34] = Tmax in BALB/c mouse at 10 mg/kg, po measured upto 24 hrs by LC/MS-MS analysis; type: ADME, organism-based; conditions: in vivo
[35] = as §1, with “liver” for “lung”; type: organism-based; conditions: in vivo
[36] = Toxicity in BALB/c mouse assessed as change in SCr level in serum at 10 mg/kg, po; type: organism-based; conditions: in vivo
[37] = Toxicity in BALB/c mouse assessed as histopathological lesions in liver at 10 mg/kg, po by H and E staining based analysis; type: organism-based; conditions: in vivo
[38] = Toxicity in BALB/c mouse assessed as change in AST level in serum at 10 mg/kg, po; type: organism-based; conditions: in vivo
[39] = Toxicity in BALB/c mouse assessed as change in SOD level in serum at 10 mg/kg, po; type: organism-based; conditions: in vivo
[40] = Toxicity in BALB/c mouse assessed as change in BUN level in serum at 10 mg/kg, po; type: organism-based; conditions: in vivo
[41] = Toxicity in BALB/c mouse assessed as change in ALT level in serum at 10 mg/kg, po; type: organism-based; conditions: in vivo
[42] = Toxicity in BALB/c mouse assessed as histopathological lesions in kidney at 10 mg/kg, po by H and E staining based analysis; type: organism-based; conditions: in vivo
[43] = Toxicity in BALB/c mouse assessed as histopathological lesions in lung at 10 mg/kg, po by H and E staining based analysis; type: organism-based; conditions: in vivo

SMILES: CCOC(=O)c1noc2c1C[C@@]1(C)[C@@H](CC[C@]3(C)[C@@H]1CC=C1[C@@H]4CC(C)(C)CC[C@]4(C(=O)OCc4ccccc4)CC[C@]13C)[C@]2(C)COC(=O)CCC(=O)N1CCOCC1
- Activity [1]: Non-toxic
- Activity [2]: Non-toxic
- Cmax [3]: 2760 ng/mL
- Activity (Mus musculus [4]): Active
- Activity (RAW264.7 [5]): Active
- Activity (RAW264.7 [6]): Dose-dependent-effect
- Activity [7]: Non-toxic
- Activity (RAW264.7 [8]): Dose-dependent-effect
- AUC(0-inf) [9]: 9970 ng·h/mL
- Activity [10]: Non-toxic
- Activity [11]: Non-toxic
- Activity (Mus musculus [12]): Active
- inhibition at 20 µM (RAW264.7 [13]): 69.6%
- Activity [14]: Non-toxic
- Activity [15]: Non-toxic
- Activity [16]: Non-toxic
- Activity [17]: Toxic
- Activity [18]: Non-toxic
- Activity (Mus musculus [19]): Active
- Activity (RAW264.7 [20]): Non-toxic
- half-life [21]: 325 min
- Activity (Mus musculus [22]): Active
- Activity (Mus musculus [23]): Active
- Activity [24]: Non-toxic
- Activity [25]: Non-toxic
- Activity (Mus musculus [26]): Active
- Activity [27]: Non-toxic
- inhibition at 20 µM (RAW264.7 [28]): 80%
- Activity [29]: Non-toxic
- AUC(0-t) at 24 h [30]: 9620 ng·h/mL
- Activity [31]: Non-toxic
- Activity (Mus musculus [32]): Active
- Activity (Mus musculus [33]): Active
- Tmax [34]: 2.25 h
- Activity [35]: Non-toxic

SMILES: CC1(C)CC[C@]2(C(=O)OCc3ccccc3)CC[C@]3(C)C(=CC[C@@H]4[C@@]5(C)Cc6c(C(=O)O)noc6[C@@](C)(CO)[C@@H]5CC[C@]43C)[C@@H]2C1
- Cmax [3]: 285 ng/mL
- AUC(0-inf) [9]: 2720 ng·h/mL
- half-life [21]: 332 min
- AUC(0-t) at 24 h [30]: 2580 ng·h/mL
- Tmax [34]: 3 h

SMILES: CCOC(=O)c1noc2c1C[C@@]1(C)[C@@H](CC[C@]3(C)[C@@H]1CC=C1[C@@H]4CC(C)(C)CC[C@]4(C(=O)OCc4ccccc4)CC[C@]13C)[C@]2(C)CO
- Cmax [3]: 3930 ng/mL
- Activity [36]: Non-toxic
- AUC(0-inf) [9]: 23400 ng·h/mL
- Activity [37]: Non-toxic
- inhibition at 20 µM (RAW264.7 [13]): 32.5%
- Activity [38]: Non-toxic
- Activity [39]: Non-toxic
- Activity [40]: Non-toxic
- Activity [41]: Non-toxic
- Activity (RAW264.7 [20]): Non-toxic
- half-life [21]: 291 min
- inhibition at 20 µM (RAW264.7 [28]): 52.4%
- AUC(0-t) at 24 h [30]: 22700 ng·h/mL
- Activity [42]: Non-toxic
- Tmax [34]: 4 h

SMILES: C[C@@H]1C[C@H]2[C@@H]3CCC4=CC(=O)C=C[C@]4(C)[C@@]3(F)[C@@H](O)C[C@]2(C)[C@@]1(O)C(=O)CO [DEXAMETHASONE]
- Activity [43]: Non-toxic
- inhibition at 20 µM (RAW264.7 [13]): 73.5%
- inhibition at 20 µM (RAW264.7 [28]): 80.7%

SMILES: CC1(C)CC[C@]2(C(=O)OCc3ccccc3)CC[C@]3(C)C(=CC[C@@H]4[C@@]5(C)Cc6c(C(=O)O)noc6[C@@](C)(COC(=O)CCC(=O)N6CCOCC6)[C@@H]5CC[C@]43C)[C@@H]2C1
- Cmax [3]: 209 ng/mL
- AUC(0-inf) [9]: 2020 ng·h/mL
- half-life [21]: 269 min
- AUC(0-t) at 24 h [30]: 1290 ng·h/mL
- Tmax [34]: 1.5 h
